Test results published in PubChem BioAssay (NCI).
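The compound was tested at five concentrations on cells cultured in 96-well plates, with a 48-hour exposure period. TGI: concentration producing complete growth inhibition.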

Columns and labels:
Experiment in all cases: growth of human tumour cells (NCI), 48 h
[1] = test system: COLO 205 colon
[2] = test system: ACHN renal
[3] = test system: NCI-H226 lung
[4] = test system: SR leukemia
[5] = test system: T-47D breast
[6] = test system: RXF 393 renal
[7] = test system: OVCAR-4 ovarian
[8] = test system: SW-620 colon
[9] = test system: HCC-2998 colon
[10] = test system: CCRF-CEM leukemia
[11] = test system: TK-10 renal
[12] = test system: HL-60(TB) leukemia
[13] = test system: EKVX NSCLC
[14] = test system: M14 melanoma
[15] = test system: A549 NSCLC
[16] = test system: MDA-MB-231 breast
[17] = test system: MCF7 breast
[18] = test system: HOP-92 NSCLC
[19] = test system: HCT-15 colon
[20] = test system: HOP-62 NSCLC
[21] = test system: SK-MEL-28 melanoma
[22] = test system: MDA-N
[23] = test system: A498 renal
[24] = test system: OVCAR-5 ovarian
[25] = test system: U251 CNS
[26] = test system: MDA-MB-435
[27] = test system: NCI-H23 lung
[28] = test system: LOX IMVI melanoma
[29] = test system: OVCAR-8 ovarian
[30] = test system: SF-295 CNS
[31] = test system: SNB-19 CNS
[32] = test system: MOLT-4 leukemia
[33] = test system: SK-MEL-5 melanoma
[34] = test system: UACC-62 melanoma
[35] = test system: SK-OV-3 ovarian
[36] = test system: RPMI-8226 leukemia
[37] = test system: NCI-H460 lung
[38] = test system: NCI/ADR-RES ovarian
[39] = test system: UACC-257 melanoma
[40] = test system: UO-31 renal
[41] = test system: SK-MEL-2 melanoma
[42] = test system: K-562 leukemia
[43] = test system: CAKI-1 renal
[44] = test system: DU-145 prostate
[45] = test system: OVCAR-3 ovarian
[46] = test system: HT29 colon
[47] = test system: IGROV1 ovarian
[48] = test system: PC-3 prostate
[49] = test system: BT-549 breast
[50] = test system: KM12 colon
[51] = test system: SF-539 CNS
[52] = test system: SN12C renal
[53] = test system: HCT-116 colon

**Q.** What does the source list for C[C@]12CC[C@@H]3c4ccc(OCCN5CCCC5)cc4CC[C@H]3[C@@H]1CCC2=O?
**A.** TGI [1]: 35.6 µM; TGI [2]: > 100 µM; TGI [3]: 54 µM; TGI [4]: > 100 µM; TGI [5]: > 100 µM; TGI [6]: > 100 µM; TGI [7]: > 100 µM; TGI [8]: > 100 µM; TGI [9]: 25.1 µM; TGI [10]: > 100 µM; TGI [11]: > 100 µM; TGI [12]: > 100 µM; TGI [13]: 67.6 µM; TGI [14]: 29.4 µM; TGI [15]: > 100 µM; TGI [16]: 68.7 µM; TGI [17]: 48.2 µM; TGI [18]: > 100 µM; TGI [19]: 29 µM; TGI [20]: 44.5 µM; TGI [21]: > 100 µM; TGI [22]: 64.3 µM; TGI [23]: > 100 µM; TGI [24]: 97.4 µM; TGI [25]: > 100 µM; TGI [26]: > 100 µM; TGI [27]: > 100 µM; TGI [28]: 29.7 µM; TGI [29]: > 100 µM; TGI [30]: 43.2 µM; TGI [31]: > 100 µM; TGI [32]: 70.2 µM; TGI [33]: 30 µM; TGI [34]: 69.8 µM; TGI [35]: > 100 µM; TGI [36]: > 100 µM; TGI [37]: 53.9 µM; TGI [38]: > 100 µM; TGI [39]: > 100 µM; TGI [40]: 61.9 µM; TGI [41]: 35.1 µM; TGI [42]: > 100 µM; TGI [43]: 81.5 µM; TGI [44]: > 100 µM; TGI [45]: 68.8 µM; TGI [46]: > 100 µM; TGI [47]: 40.7 µM; TGI [48]: > 100 µM

**Q.** For CCN(CC)CCCC(C)Nc1cc(/C=C/c2ccc(Cl)cc2)nc2cc(N(C)C)ccc12 (centres undefined), which TGI [2] is on record?
**A.** The TGI was 4.42 µM.

**Q.** What about the TGI [3] of the same compound?
**A.** Its TGI is 11.6 µM.

**Q.** And the TGI [4]?
**A.** Its TGI is 2.85 µM.

**Q.** And the TGI [5]?
**A.** The TGI was 3.55 µM.

**Q.** And the TGI [6]?
**A.** Its TGI is 3.06 µM.

**Q.** What about the TGI [8] of the same compound?
**A.** Its TGI is 2.69 µM.

**Q.** What about the TGI [9] of the same compound?
**A.** The TGI was 3.57 µM.

**Q.** What about the TGI [11] of the same compound?
**A.** The TGI was 3.54 µM.

**Q.** And the TGI [12]?
**A.** The TGI was 3.54 µM.

**Q.** What about the TGI [13] of the same compound?
**A.** Its TGI is 3.34 µM.

**Q.** What about the TGI [14] of the same compound?
**A.** The TGI was 3.09 µM.

**Q.** What about the TGI [17] of the same compound?
**A.** Its TGI is 3.39 µM.

**Q.** And the TGI [18]?
**A.** The TGI was 3.16 µM.

**Q.** And the TGI [19]?
**A.** The TGI was 3.17 µM.

**Q.** What about the TGI [20] of the same compound?
**A.** Its TGI is 3.4 µM.

**Q.** And the TGI [22]?
**A.** Its TGI is 3.01 µM.

**Q.** And the TGI [23]?
**A.** Its TGI is 3.12 µM.

**Q.** And the TGI [24]?
**A.** The TGI was 3.37 µM.

**Q.** What about the TGI [25] of the same compound?
**A.** The TGI was 3.19 µM.

**Q.** And the TGI [49]?
**A.** The TGI was 3.01 µM.

**Q.** And the TGI [26]?
**A.** Its TGI is 3.06 µM.

**Q.** And the TGI [50]?
**A.** The TGI was 3.26 µM.

**Q.** And the TGI [29]?
**A.** The TGI was 3.41 µM.

**Q.** And the TGI [30]?
**A.** Its TGI is 3.33 µM.

**Q.** What about the TGI [31] of the same compound?
**A.** The TGI was 3.3 µM.

**Q.** And the TGI [32]?
**A.** Its TGI is 3.01 µM.

**Q.** What about the TGI [33] of the same compound?
**A.** The TGI was 4.34 µM.

**Q.** What about the TGI [34] of the same compound?
**A.** Its TGI is 6.54 µM.

**Q.** And the TGI [51]?
**A.** The TGI was 4.65 µM.

**Q.** What about the TGI [40] of the same compound?
**A.** The TGI was 3.55 µM.

**Q.** What about the TGI [44] of the same compound?
**A.** The TGI was 3.21 µM.

**Q.** And the TGI [52]?
**A.** The TGI was 3.25 µM.

**Q.** What about the TGI [53] of the same compound?
**A.** Its TGI is 2.49 µM.

**Q.** And the TGI [45]?
**A.** Its TGI is 3.49 µM.

**Q.** And the TGI [46]?
**A.** Its TGI is 2.65 µM.

**Q.** And the TGI [48]?
**A.** The TGI was 2.78 µM.
